In patent US11911356B2, “Regulation of mutant TERT by BRAF V600E/map kinase pathway through FOS/GABP in human cancer” (THE JOHNS HOPKINS UNIVERSITY, priority 2017, dated 2024):

Experiments:
ERK phosphorylation = assay: Western blotting of phosphorylated ERK in inhibitor-treated cells; format: cell-based, human; settings: 0.5 uM PLX4032, 24 hours
Description: FIG. 2A-2G. BRAF V600E/MAPK pathway regulated TERT expression. (FIG. 2A) TERT expression was analyzed by qRT-PCR in cells treated with 0.5 uM PLX4032 or 0.2 uM AZD6244 for 24 hours (upper panel). The corresponding levels of phosphorylated ERK (p-ERK), total ERK (t-ERK), and beta-actin were detected by Western blotting (lower panel). The relative TERT mRNA expression levels were normalized to the DMSO control group. (FIG. 2B) Luciferase reporting assay of TERT promoter activities in K1 cells treated with DMSO or PLX4032 (0.5 uM). (FIG. 2C, 2D) Specific shRNA against BRAF were used to knock down BRAF in thyroid cancer cell lines BCPAP and K1 and melanoma cell line A375. Scramble shRNA was used as control. Cells were then subjected to Western blotting (FIG. 2C) and qRT-PCR (FIG. 2D). (FIG. 2E) Sequencing of the BRAF exon-15 in the parental and heterozygous BRAF-V600E knock-in SW48 cells. BRAF V600E was knocked in on one allele of BRAF by rAAV technology through homologous recombination and Cre recombinase of the Neo cassette. (FIG. 2F) Western blotting analyses of phosphorylation of ERK (p-ERK), total ERK (t-ERK), BRAF, and beta-actin in the parental and BRAF-V600E knock-in SW48 cells. (FIG. 2G) TERT promoter luciferase reporter assay in SW48 cells with/without BRAF V600E knock-in. **P<0.01, ***P<0.001, by 2-tailed Student's t test. P values are for the comparison of the indicated condition with DMSO (FIG. 2B), scramble (FIG. 2D), or BRAF-WT groups (FIG. 2G). All the values represent the average standard deviation (SD) of triplicate samples from a typical experiment. All the experiments were performed three times with similar results. […]
Cells were lysed in the RIPA buffer (#sc-24948; Santa Cruz Biotechnology, Santa Cruz, CA) with protease inhibitor cocktail (#P8340; Sigma-Aldrich) and phosphatase inhibitor cocktail (#P0044; Sigma-Aldrich) and Western blotting analysis was performed as we previously described^54. […] Signals were detected by SuperSignal™ West Pico PLUS Chemiluminescent Substrate (#34579; Thermo Fisher Scientific). […]

[1] = test system: K1 cells xenograft tumors; assay: Xenograft tumorigenicity assay; format: in vivo; settings: K1 xenograft in nude mice
Source text: FIG. 1A-1G. Cooperative role of BRAF V600E and TERT in the oncogenic behavior and tumor growth of cancer cells. Specific shRNA against BRAF and siRNA against TERT were used to knock down BRAF and TERT in the indicated cancer cells, respectively, followed by performance of assays of MTT of cell proliferation (FIG. 1A), transwell cell migration (FIG. 1B), cell invasion (FIG. 1C), and colony formation in soft agar (FIG. 1D) (with representative images shown in the left panel and the average colony numbers in the right panel). Western blotting analysis of TERT and phosphorylation of ERK (p-ERK) was performed for K1 cells (FIG. 1E), from which xenograft tumors were derived to test the role of TERT and BRAF V600E in tumor development and growth (FIG. 1F, FIG. 1G). […] The “Control” in FIG. 1A-1D represented the combination of scramble shRNA and Control siRNA. […] The red horizontal bar on the left of FIG. 1D represents 100 μm; colonies larger than this size were counted and colony numbers are shown on the right of the panel. […]
All animal experiments were approved and performed according to the guidelines of the Institutional Animal Care and Use Committee (IACUC) of Johns Hopkins University. […] Tumor size was measured twice a week on the skin surface of the animal using a caliper and tumor volume was calculated using the formula (width^2×length)/2 as previously described. […]

CCCS(=O)(=O)Nc1ccc(F)c(C(=O)c2c[nH]c3ncc(-c4ccc(Cl)cc4)cc23)c1F [PLX4032]
ERK phosphorylation (ERK phosphorylation; cells harboring BRAF V600E mutation): specifically suppressed ERK phosphorylation
ERK phosphorylation (ERK phosphorylation; several wild-type BRAF cell lines): increase in ERK phosphorylation
tumor growth ([1]; 10 mg/kg PLX4032 daily by oral gavage): inhibited tumor growth
tumor growth ([1]; PLX4032 10 mg/kg daily combined with stable TERT knockdown (shTERT)): nearly completely abolished tumor growth
